Data as given in US12391673B2, “LANCL ligands” (NImmune Biopharma, Inc., priority 2020, dated 2025).

Legend:
CD4+ T cells = test: Immunological screening in vitro in CD4+ T cells (flow cytometry); type: cell-based, C57BL/6 mice; conditions: 100 nanomolar, 24 h, anti-CD3/CD28, PMA and ionomycin last 6 h, relative to vehicle control
Text: Cell culture. Spleens were excised from C57BL/6 mice. Spleens were crushed between the frosted ends of microscope slides and filtered to provide a cellular suspension. Red blood cells were lysed through hypotonic lysis. Remaining cells were washed and filtered. CD4+ T cells were enriched within the suspension using magnetic sorting based negative selection. Cells were collected and plated within 96 well plates coated with anti-CD3/CD28 and cultured in the presence of BT-108-1, BT-108-2, BT-108-6, BT-108-8, BT-108-12, and BT-108-15 at 0 or 100 nanomolar for 24 h. During the last 6 h of culture, cells were stimulated with phorbol 12-myristate-13-acetate (PMA) and ionomycin.
Immunological analysis. Cells were collected from 96 well plates and stained with a cocktail of antibodies for immunophenotyping by flow cytometry. Culture supernatant was collected and assayed for cytokine concentrations by cytometric bead array. Data was captured on a BD FACS Celesta and analyzed using FACSDiva.

[1] = tested on: collagen induced arthritis; test: Collagen induced model of arthritis; type: in vivo, C57Bl/6 mice; conditions: 5 mg/kg oral daily for four weeks, vs vehicle
Method: Models. Six-week-old C57Bl/6 mice were immunized with 200 μg of chicken collagen emulsified in complete Freund's adjuvant by intradermal injections at the base of the tail. Mice were treated with 5 mg/kg of BT-108-1 or vehicle, daily for four weeks.
Immunological analysis. Spleens were excised from mice. Tissues were crushed and filtered to provide a cellular suspension. Red blood cells were lysed. Cells were labeled with mixtures of extracellular (CD45, CD3, CD4, CD8, B220, CD19, CD138, CD21, CD24, CD1d, CD11b, CD86, CD80) and intracellular (BCL6, IL21, IL10, TNF) antibodies in a sequential live staining in 96-well plates in preparation for flow cytometry. Data was captured on a BD FACS Celesta and analyzed using FACSDiva.

DSS colitis = test: DSS model of colitis; type: in vivo, mice; conditions: 10 mg/kg once daily oral gavage, 7 days of DSS, vs vehicle
Method: DSS model. Mice were given DSS in drinking water for seven days to induce disruption of the epithelial layer. At project initiation, mice were 8 weeks of age and began dosing 24 hours after being placed on DSS. BT-108-1 was prepared within a 0.5% methylcellulose (12-15 cP) solution. Dosage used was 10 mg/kg delivered once daily. Dosage was calculated based off mean body weights for each gender. Oral dosage was delivered by orogastric gavage of dosage in 0.2 mL volume.
Flow Cytometry. Colons were collected into RPMI/FBS buffer containing collagenase (300 U/mL) and DNase (50 U/mL) for digestion. Tissues were digested for 60 minutes under stirring at 37° C. Resultant cellular suspensions were filtered through 100 μm strainers, centrifuged (300× g, 8 min), and washed in fresh RPMI. Following filtration of the resulting single cell suspensions, immune cells were purified by Percoll gradient of cell-containing 40% Percoll overlayed onto 70% Percoll solution. After centrifugation, interphase was collected and washed to obtain enriched colonic lamina propria cell fractions. Cells were labeled with mixtures of extracellular (CD45, CD3, CD4, CD8, CD19, NK1.1, F4/80, CD11b, Gr1) antibodies in a sequential live staining in 96-well plates. Data was acquired using a FACS Celesta flow cytometer with FACSDiva software.
Histopathology. Colonic tissues were fixed in 10% formalin, paraffin embedded, and H&E stained. Sections were examined using an Olympus microscope. Histological score was assessed through a composite scoring system of leukocytic infiltration, epithelial erosion, and mucosal thickness.

[2] = tested on: NOD model of type 1 diabetes; test: NOD mouse model of type 1 diabetes; type: in vivo, Non-obese diabetic (NOD) ShiLt mice; conditions: 10 mg/kg oral gavage daily, vs vehicle
Method: NOD model. Non-obese diabetic (NOD) ShiLt mice were used in this study. NOD mice have numerous genetic mutations that enable the spontaneous onset of hyperglycemia and pancreatic pathologies associated with T1D. Mice entered into the experiment at 9 weeks of age and were monitored for a 12-week period. Mice were treated daily with vehicle or 10 mg/kg BT-108-1 by oral gavage. Once weekly blood samples were collected from the tail vein to be tested for glucose concentration by glucometer.

[3] = tested on: imiquimod-induced psoriasis; test: Imiquimod induced model of psoriasis; type: in vivo, C57BL/6 mice; conditions: 10 mg/kg oral gavage daily, one week, vs vehicle
Method: IMQ-induced model. C57BL/6 mice were anesthetized, shaved, and briefly exposed to depilatory cream on the surface of the back. Mice were given three days to recover from the procedure prior to entry to the study. After 3 days, mice were challenged with approximately 60 mg of […] imiquimod cream daily by spreading cream over the shaved area. Mice were scored daily for erythema, scaling and skin thickness. Treatment with BT-108-1 (10 mg/kg) or vehicle control occurred by oral gavage. Dosage was calculated based off mean body weights.
Analysis. Spleens were excised and crushed by microscope slides. Red blood cells were hypotonically lysed from the resultant suspension. Samples were filtered, washed and centrifuged prior to staining. Th1 (Tbet+ IFNγ+), Th17 (RORγT+ IL17+), Treg (CD25+ FOXP3+ IL10+) and Tfh (BCL6+ IL21+) were quantified from CD3+ CD4+ T cells by flow cytometry.

[4] = tested on: Western diet model of nonalcoholic steatohepatitis; test: Western diet / CCl4 model of nonalcoholic steatohepatitis; type: in vivo, C57BL/6 mice; conditions: 5 mg/kg oral gavage daily, after 4 weeks of treatment, vs vehicle
Method: WD-induced model. C57BL/6 mice were placed on a Western diet consisting of a high-fat diet with addition of 23.1 g/L d-fructose and 18.9 g/L d-glucose to drinking water and weekly intraperitoneal injections of 0.2 μL/g CCl4 to induce steatohepatitis. Matching groups on control diet were included. Mice were treated daily, in a therapeutic manner after 8 weeks of diet. Treatment with BT-108-1 (5 mg/kg) or vehicle control occurred by oral gavage. Dosage was calculated based off mean body weights.
Analysis. Livers were excised and weighed. Sections of livers were excised and stored in buffered formalin for Sirius red staining or snap frozen for assessment of triglycerides. Severity of fibrosis was assessed by scoring of Sirius red stained liver.

SMILES | IFNγ production / IFNγ+ CD4+ T cells (CD4+ T cells) | TNFα production / TNF+ CD4+ T cells (CD4+ T cells) | proportion of IL-17+ CD4+ T cells in the spleens [1] | proportion of TNF+ immune cells in the spleens [1] | Th17 cells (CD4+ IL17+) in the colonic lamina propria (DSS colitis) | histopathology score (colon) (DSS colitis) | neutrophils in the colonic lamina propria (DSS colitis) | proportion of mice that developed hyperglycemia ([2]; by the end of the study) | fasting blood glucose levels ([2]; throughout the 12-week treatment period) | Th17 cells (CD4+ IL17+) in the spleen [3] | severity of disease (composite scoring of skin) [3] | body weight normalized liver weights [4] | fibrotic scoring (Sirius red stained liver) [4] | liver triglycerides [4]
COc1cccc(C(O)(C(=O)Nc2cncc(-c3cnnc4ccccc34)c2)c2ncc[nH]2)c1 (stereo not drawn) [BT-108-12, N-(5-(cinnolin-4-yl)pyridin-3-yl)-2-hydroxy-2-(1H-imidazol-2-yl)-2-(3-methoxyphenyl)acetamide] | significant reduction | significant reduction | – | – | – | – | – | – | – | – | – | – | – | –
O=C(Nc1cncc(-c2cnnc3ccc(C(F)(F)F)cc23)c1)C(O)(c1ccccc1)c1ncc[nH]1 (stereo not drawn) [BT-108-15, N-(5-(6-trifluoromethylcinnolin-4-yl)pyridin-3-yl)-2-hydroxy-2-(1H-imidazol-2-yl)-2-phenylacetamide] | significant reduction | significant reduction | – | – | – | – | – | – | – | – | – | – | – | –
O=C(Nc1cncc(-c2cnnc3ccccc23)c1)C(O)(c1ccccc1)c1ncc[nH]1 (stereo not drawn) [BT-108-1, N-(5-(cinnolin-4-yl)pyridin-3-yl)-2-hydroxy-2-(1H-imidazol-2-yl)-2-phenylacetamide] | significant reduction | significant reduction | significantly reduced | significantly reduced | decreased | decreased | decreased | lower proportion | lower | reduced | reduced | reduced | reduced | reduced
